Test systems include SNB-19 CNS; MOLT-4 leukemia; UACC-62 melanoma; SF-539 CNS; HL-60(TB) leukemia; SK-OV-3 ovarian; A498 renal; SF-268 CNS; COLO 205 colon; IGROV1 ovarian.
What all share (assay): NCI tumour cell line growth inhibition, 48 h

Where “and” joins values, the source holds several entries; their conditions need not be identical. Equal entries are not always repeated.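 Tested at 5 concentrations; 48 h exposure; 96-well plates; endpoints linearly interpolated, else capped at highest concentration. At the GI50, growth is halved. TGI is the concentration that stops growth completely.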

Regarding `O=S(O)c1cc(Cl)c(O)c(Cl)c1`, the TGI with SNB-19 CNS, in the experiment on MOLT-4 leukemia, in the experiment on UACC-62 melanoma, with SF-539 CNS, in the experiment on HL-60(TB) leukemia and in the experiment on SK-OV-3 ovarian was more than 100 µM throughout. The TGI in the experiment with A498 renal and in the experiment on SF-268 CNS was more than 100 µM throughout.
For `Cn1c(=O)c2[nH]c(SC/C(=N/O)c3ccc(Br)cc3)nc2n(C)c1=O`, the GI50 with SNB-19 CNS is 2.94 µM; in the experiment on MOLT-4 leukemia, 20.4 µM; in the experiment with COLO 205 colon, more than 100 µM; in the experiment on HL-60(TB) leukemia, 68.6 µM; in the experiment with IGROV1 ovarian, 2.27 µM. For the same compound, the TGI with SNB-19 CNS is 8.35 µM; with MOLT-4 leukemia, 64 µM; in the experiment on COLO 205 colon it was more than 100 µM; in the experiment on HL-60(TB) leukemia, more than 100 µM; with IGROV1 ovarian, 5.55 µM.
With `COc1ccc2c3/c(=C\c4ccc(N(C)C)cc4)c4ccccc4n3[n+](C)c2c1`, the GI50 with MOLT-4 leukemia was 0.0944 µM; in the experiment with UACC-62 melanoma, less than 0.0275 µM; in the experiment on SF-539 CNS, 0.0409 µM; in the experiment with COLO 205 colon it was 0.029 µM; with HL-60(TB) leukemia it was 0.051 µM; with SK-OV-3 ovarian it was 1.04 µM. Further, the GI50 in the experiment with IGROV1 ovarian is 0.24 µM; with A498 renal it was 0.371 µM; in the experiment with SF-268 CNS it was 0.437 µM. The TGI in the experiment on MOLT-4 leukemia was 27.9 µM; in the experiment with UACC-62 melanoma, 0.224 µM; in the experiment with SF-539 CNS it was 0.748 µM; in the experiment with COLO 205 colon it was 0.757 µM; in the experiment with SK-OV-3 ovarian it was 2.57 µM; in the experiment on IGROV1 ovarian, more than 100 µM. Besides, the TGI in the experiment with A498 renal came out at 7.37 µM; in the experiment with SF-268 CNS, 3.03 µM.
As to `COc1ccccc1C(=O)OCC1CCCN2CCCCC12` (stereo not given), the TGI in the experiment with SNB-19 CNS is more than 100 µM; in the experiment with MOLT-4 leukemia it was more than 100 µM; in the experiment on UACC-62 melanoma it was more than 100 µM; in the experiment on SF-539 CNS it was more than 100 µM; with COLO 205 colon, more than 100 µM; with HL-60(TB) leukemia, 44.2 µM. Further, the TGI in the experiment with SK-OV-3 ovarian, in the experiment with A498 renal and in the experiment with SF-268 CNS was more than 100 µM throughout.
On to `Cc1cc(O)c2c(c1)C(C1c3cccc(O)c3C(=O)c3c(O)cc(C)cc31)c1cccc(O)c1C2=O` (stereo not given), for which the TGI amounted to 17.1 µM in the experiment with SNB-19 CNS; 12.5 µM with MOLT-4 leukemia; 0.556 µM in the experiment with SF-539 CNS; 0.378 µM with COLO 205 colon; 6.72 µM in the experiment with HL-60(TB) leukemia; 1.69 µM with SK-OV-3 ovarian. Besides, the TGI amounted to 4.56 µM in the experiment with IGROV1 ovarian, 4.53 µM in the experiment with A498 renal and 14 µM in the experiment on SF-268 CNS.
`O=C1C(=C([O-])c2ccccc2)C(=O)c2ccccc21.O=C1C(=C([O-])c2ccccc2)C(=O)c2ccccc21.[Ni+2]`: the GI50 in the experiment with SNB-19 CNS is 58.8 µM; in the experiment on UACC-62 melanoma, 36.8 µM; with SF-539 CNS it was 59.2 µM; in the experiment on SK-OV-3 ovarian it was 23.1 µM; with IGROV1 ovarian, 48.2 µM. The TGI in the experiment with SNB-19 CNS is more than 100 µM; in the experiment with UACC-62 melanoma, more than 100 µM; with SF-539 CNS, more than 100 µM; in the experiment with SK-OV-3 ovarian, 98.4 µM; with IGROV1 ovarian, more than 100 µM.
On to `O=c1[nH]c(=O)n(C2CC(O)C(CO)O2)cc1Br` (stereo not given), for which the TGI with SNB-19 CNS, with MOLT-4 leukemia, with UACC-62 melanoma, in the experiment with SF-539 CNS, in the experiment on COLO 205 colon and in the experiment with HL-60(TB) leukemia was more than 100 µM each time. Moreover, the TGI in the experiment with SK-OV-3 ovarian, in the experiment on IGROV1 ovarian, in the experiment with A498 renal and with SF-268 CNS was more than 100 µM each time.
As to `CC1OC(O[C@@H]2C=C3CC[C@@H]4[C@H](CC[C@]5(C)[C@@H](c6ccc(=O)oc6)CC[C@]45O)[C@@]3(C)CC2)C(O)C(OC2OC(CO)C(O)C(O)C2O)C1O` (stereo not given in full), the results for the GI50 in the experiment with SNB-19 CNS and in the experiment with COLO 205 colon were 0.00038 µM and 0.000949 µM, respectively. Further, the TGI in the experiment with SNB-19 CNS is 0.113 µM and 0.0674 µM; in the experiment with UACC-62 melanoma it was 0.0263 µM; with SF-539 CNS it was 0.000699 µM; in the experiment on COLO 205 colon, 0.163 µM and 0.029 µM; in the experiment on IGROV1 ovarian it was 0.0219 µM and 0.0562 µM; in the experiment on A498 renal, 0.0825 µM. For the same compound, the TGI in the experiment on SF-268 CNS was determined as 0.00983 µM.
As for `COc1cc(O)c(Cc2ccccc2O)c(O)c1C(=O)CCc1ccccc1`, the TGI in the experiment with SNB-19 CNS worked out at 26.4 µM; in the experiment with MOLT-4 leukemia, 10.5 µM; in the experiment with UACC-62 melanoma, 19.1 µM; in the experiment with SF-539 CNS, 15.7 µM; in the experiment with COLO 205 colon, 16.5 µM; in the experiment on HL-60(TB) leukemia, 20 µM. In addition, the TGI in the experiment on SK-OV-3 ovarian stood at 18.2 µM; in the experiment with IGROV1 ovarian, 29.8 µM; in the experiment on A498 renal it was 14.4 µM; with SF-268 CNS it was 33.5 µM.
Regarding `NC(=O)/N=C/c1c(O)c2ccccc2oc1=O`, the TGI in the experiment with SNB-19 CNS, with MOLT-4 leukemia, in the experiment on UACC-62 melanoma, in the experiment with SF-539 CNS, in the experiment on COLO 205 colon and in the experiment on HL-60(TB) leukemia was more than 100 µM throughout. Moreover, the TGI in the experiment with IGROV1 ovarian and in the experiment on SF-268 CNS was more than 100 µM each time.
